The record followed here is PubChem BioAssay (NCI).

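Protocol summary: plate cells (96-well), add compound at 5 concentrations, incubate 48 h, interpolate endpoints linearly. The concentration for 50% growth inhibition is given as GI50. TGI: concentration producing complete growth inhibition.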

Test systems include HT29 colon; SN12C renal; ACHN renal; OVCAR-3 ovarian; UACC-257 melanoma; SNB-19 CNS; LOX IMVI melanoma; M14 melanoma; SK-MEL-28 melanoma; CAKI-1 renal.
Test in all cases: DTP human tumour cell line panel, 48 h

What is called TGI is the concentration giving total growth inhibition. A high value points to less potent growth arrest. As usually defined, the GI50 is the concentration giving 50% growth inhibition.

Regarding `Cc1c(Cl)cccc1NC(=O)C(=O)C1C(=O)CC(C)(C)CC1=O`, the total growth inhibition concentration (TGI) in the experiment on HT29 colon, in the experiment with SN12C renal, with ACHN renal, in the experiment on OVCAR-3 ovarian, in the experiment with UACC-257 melanoma and with SNB-19 CNS was over 100 µM each time. Further, the TGI with LOX IMVI melanoma, in the experiment with M14 melanoma, in the experiment with SK-MEL-28 melanoma and in the experiment with CAKI-1 renal was over 100 µM each time.
With `O=C(/C=C/c1ccccc1)/C=C/c1ccccc1O`, the TGI worked out at 47.6 µM in the experiment on HT29 colon; 30.4 µM in the experiment on SN12C renal; 42.1 µM with ACHN renal; 0.842 µM with OVCAR-3 ovarian; 44.3 µM with UACC-257 melanoma; 61.5 µM in the experiment with SNB-19 CNS. For the same compound, the TGI in the experiment on LOX IMVI melanoma stood at 33.8 µM; in the experiment on M14 melanoma, 50.7 µM; with SK-MEL-28 melanoma, 81 µM; in the experiment on CAKI-1 renal it was 64.6 µM.
On to `Oc1ccccc1C(c1cc2c(cc1O)OCO2)N1CCOCC1` (stereo not given), for which the TGI with HT29 colon turned out to be 35.2 µM; in the experiment with SN12C renal, 34.3 µM; with ACHN renal, 31.5 µM; in the experiment with OVCAR-3 ovarian it was 31.6 µM; in the experiment with UACC-257 melanoma it was 36.1 µM; with SNB-19 CNS it was 37.2 µM. Further, the TGI in the experiment with LOX IMVI melanoma worked out at 43.4 µM; in the experiment on M14 melanoma it was 34.3 µM; in the experiment on SK-MEL-28 melanoma, 38.5 µM; in the experiment on CAKI-1 renal, 35.9 µM.
On to `Cc1ccc(N=Nc2c3c(c(O)c4ccccc24)CCC(C)(C)O3)cc1`, for which the TGI in the experiment with HT29 colon was found to be 35.7 µM; with SN12C renal, 28.5 µM; with ACHN renal, 62.1 µM; in the experiment on OVCAR-3 ovarian, 62.4 µM; in the experiment on UACC-257 melanoma, 23 µM; in the experiment with SNB-19 CNS, 42.7 µM. Besides, the TGI in the experiment on LOX IMVI melanoma was 28.6 µM; in the experiment with M14 melanoma, 32.6 µM; in the experiment with SK-MEL-28 melanoma, 42.1 µM; in the experiment with CAKI-1 renal it was over 100 µM.
With `CCOC(=O)c1c(NC(=O)c2ccccc2)sc2c1CCCC2`, the TGI in the experiment with HT29 colon, in the experiment on SN12C renal, in the experiment with ACHN renal, in the experiment on OVCAR-3 ovarian, in the experiment with UACC-257 melanoma and with SNB-19 CNS was over 100 µM each time. The TGI in the experiment on LOX IMVI melanoma, in the experiment on M14 melanoma, in the experiment on SK-MEL-28 melanoma and with CAKI-1 renal was over 100 µM throughout.
In the case of `Nc1nc2ncc(SCc3ccc(C(=O)NC(CCC(=O)O)C(=O)O)cc3)cc2c(=O)[nH]1` (stereo not given), the TGI with HT29 colon, in the experiment with SN12C renal, in the experiment with ACHN renal, in the experiment with OVCAR-3 ovarian, in the experiment with UACC-257 melanoma and with SNB-19 CNS was over 100 µM each time. Moreover, the TGI in the experiment with LOX IMVI melanoma, in the experiment on M14 melanoma, in the experiment on SK-MEL-28 melanoma and in the experiment on CAKI-1 renal was over 100 µM throughout.
For `COc1ccc(C2C(Cl)C(=O)N2NC(=O)c2ccc(NC(C)=O)cc2)cc1` (stereo not given), the TGI in the experiment on HT29 colon, with SN12C renal, in the experiment with ACHN renal, with OVCAR-3 ovarian, with UACC-257 melanoma and in the experiment with SNB-19 CNS was over 100 µM each time. Moreover, the TGI with LOX IMVI melanoma, in the experiment with M14 melanoma, in the experiment on SK-MEL-28 melanoma and in the experiment on CAKI-1 renal was over 100 µM throughout.
`CCOC(=O)c1cc2c([N+](=O)[O-])c(NC(C)=O)ccc2s1`: the TGI with HT29 colon, in the experiment with SN12C renal, in the experiment with ACHN renal, with OVCAR-3 ovarian, with UACC-257 melanoma and in the experiment with SNB-19 CNS was over 100 µM throughout. For the same compound, the TGI in the experiment with LOX IMVI melanoma, with M14 melanoma, in the experiment on SK-MEL-28 melanoma and in the experiment with CAKI-1 renal was over 100 µM each time.
For the compound `CO[C@@H](C(=O)OC1C=CC2(CC1)C(=O)N(C)c1ccccc12)c1ccccc1` (stereo not given in full), the TGI in the experiment with HT29 colon, in the experiment on SN12C renal, with ACHN renal, with OVCAR-3 ovarian, in the experiment on UACC-257 melanoma and with SNB-19 CNS was over 100 µM each time. For the same compound, the TGI in the experiment on LOX IMVI melanoma, in the experiment with M14 melanoma, in the experiment with SK-MEL-28 melanoma and in the experiment on CAKI-1 renal was over 100 µM throughout.
On to `Cc1cc(=O)cc2sc3c(C)cccc3nc1-2`, for which the TGI in the experiment with HT29 colon is over 100 µM; in the experiment on SN12C renal it was 78.7 µM; with ACHN renal, over 100 µM; in the experiment on OVCAR-3 ovarian, 52 µM; with UACC-257 melanoma, over 100 µM; with SNB-19 CNS, over 100 µM. Moreover, the TGI in the experiment on LOX IMVI melanoma was 39.2 µM; in the experiment on M14 melanoma, 52 µM; in the experiment with SK-MEL-28 melanoma, over 100 µM; in the experiment on CAKI-1 renal, 83 µM.
Turning to `CCCCCCCCCC[C@@H](O)[C@H]1CC[C@H]([C@H]2CC[C@H]([C@H](O)CCCCCCCCCC[C@@H]3CC(CC(C)=O)C(=O)O3)O2)O1` (stereo not given in full), the TGI in the experiment with HT29 colon, in the experiment with SN12C renal, in the experiment with ACHN renal, in the experiment on OVCAR-3 ovarian, in the experiment on UACC-257 melanoma and in the experiment on SNB-19 CNS was over 50 µM each time. Moreover, the TGI in the experiment with LOX IMVI melanoma, in the experiment on M14 melanoma, in the experiment on SK-MEL-28 melanoma and in the experiment on CAKI-1 renal was over 50 µM in each case. The GI50 in the experiment with ACHN renal is 0.422 µM; in the experiment on OVCAR-3 ovarian it was 4.48 µM; with SNB-19 CNS it was 1.08 µM; in the experiment on LOX IMVI melanoma, 0.935 µM; in the experiment with M14 melanoma, 5.29 µM; with SK-MEL-28 melanoma, 5.26 µM.
Consider `CC(=O)NC1C(OCc2ccccc2)OC(CO)C(O)C1OCC(=O)N[C@@H](C)C(=O)N[C@H](CCC(=O)NCCNCCNc1c2ccccc2nc2cccc([N+](=O)[O-])c12)C(N)=O` (stereo not given in full), for which the TGI in the experiment with HT29 colon is 72.3 µM; in the experiment with SN12C renal, over 100 µM; in the experiment on ACHN renal it was 79.6 µM; in the experiment with OVCAR-3 ovarian, over 100 µM; with UACC-257 melanoma, 43 µM; in the experiment with SNB-19 CNS, over 100 µM. The TGI in the experiment with LOX IMVI melanoma is 61.9 µM; in the experiment on M14 melanoma, over 100 µM; in the experiment with SK-MEL-28 melanoma it was over 100 µM; with CAKI-1 renal, 69 µM.
As for `COc1ccc(Nc2c(C#N)c3n(c4ccccc24)c2ccccc2[n+]3C)cc1OC`, the TGI worked out at 23 µM in the experiment with HT29 colon; 7.86 µM in the experiment with ACHN renal; 11 µM in the experiment with OVCAR-3 ovarian; 17 µM in the experiment with UACC-257 melanoma; 32.4 µM in the experiment with SNB-19 CNS; 7.23 µM with LOX IMVI melanoma. Further, the results for the TGI in the experiment with M14 melanoma, in the experiment with SK-MEL-28 melanoma and with CAKI-1 renal were 8.01 µM, 17.9 µM and 4.33 µM, respectively.
